Patent US9233143B2, “Medicinal agent for preventing exacerbation of malignant tumor, comprising combination of natriuretic peptide receptor GC-A and GC-B agonists” (National Cerebral and Cardiovascular Center, priority 2011, dated 2016)

Tested on: A549 cells co-cultured with CAFs
Assay: Co-culture system of cancer cells and CAFs (mRNA of the A549 cells)
Format: cell-based, human
Settings: each test substance 1 μM
Description: In a 6-well dish, the A549 cells were cultured at 1×10^5 cells/well. The culture medium was replaced with DMEM culture medium free from FBS the next day, and the cells were further cultured for 24 hours. In a 6-well dish having a cell culture insert (1.0 μm pore size, made by BD), the CAFs were cultured at 5×10^4 cells/well. The culture medium was replaced with DMEM culture medium containing 1% FBS the next day, and the cells were further cultured for 24 hours. To each culture medium of the two kinds of cells, test substances were separately added to prepare test substance addition groups. Control groups with no test substance were also prepared. After two hours of culture, these were subjected to co-culture. The test substance addition groups were ANP groups containing hANP at a final concentration of 1 μM, CNP groups containing hCNP-22 at a final concentration of 1 μM, and ANP+CNP groups containing both hANP and hCNP-22 each at a final concentration of 1 μM. Each of the groups were prepared by adding the test substance to each culture medium of the two kinds of cells.
On the 6-well dish of A549 cells treated as above, the above cell culture insert with the CAFs was placed to prepare a co-culture experimental model where only the culture media could pass through the cell culture insert. After 24, 48, and 72 hours of culture, total RNA of the A549 cells only was recovered, cDNA was synthesized, and the mRNA levels of E-cadherin, N-cadherin, VEGF-A, PDGF-B, and IL-6 were measured by quantitative RT-PCR (FIGS. 6 to 8). The experiment using ANP alone (ANP groups: FIG. 6), the experiment using CNP alone (CNP groups: FIG. 7), and the experiment using ANP and CNP in combination (ANP+CNP group: FIG. 8) were independently conducted, where control groups were separately set for each experiment.

For `CC[C@H](C)[C@@H]1NC(=O)[C@H](CCCNC(=N)N)NC(=O)[C@H](CC(=O)O)NC(=O)[C@H](CCSC)NC(=O)[C@H](CCCNC(=N)N)NC(=O)CNC(=O)CNC(=O)[C@H](Cc2ccccc2)NC(=O)[C@@H](NC(=O)[C@H](CO)NC(=O)[C@H](CO)NC(=O)[C@H](CCCNC(=N)N)NC(=O)[C@H](CCCNC(=N)N)NC(=O)[C@H](CC(C)C)NC(=O)[C@@H](N)CO)CSSC[C@@H](C(=O)N[C@@H](CC(N)=O)C(=O)N[C@@H](CO)C(=O)N[C@@H](Cc2ccccc2)C(=O)N[C@@H](CCCNC(=N)N)C(=O)N[C@@H](Cc2ccc(O)cc2)C(=O)O)NC(=O)CNC(=O)[C@H](CC(C)C)NC(=O)CNC(=O)[C@H](CO)NC(=O)[C@H](CCC(N)=O)NC(=O)[C@H](C)NC(=O)CNC1=O` [hANP], the “gene expression of the growth factors (VEGF-A, PDGF-B) and inflammatory cytokine (IL-6) increased in the co-culture” value (A549 cells co-cultured with CAFs 24, 48, 72 hours, FIGS. 6 to 8) was “could not suppress” and the “expression ratio of N-cadherin/E-cadherin (N-cad/E-cad), indicator of EMT, in the co-culture” value (A549 cells co-cultured with CAFs, FIGS. 6D, 7D, 8D) was “did not show any effect”.
